Reference: patent US5217950A, “Nisin compositions for use as enhanced, broad range bactericides” (Applied Microbiology, Inc., priority 1992, dated 1993)
Where no end group is shown, it is not given here.

Columns and labels:
Streptococcus mutans [1] = experiment: bactericidal activity and kinetics: percent bacterial survival in Tris buffer; assay type: cell-based; conditions: for % Survival: 1.0 mM EDTA, nisin 0, 20 mM Tris-HCl pH 7.3
Method: Incubations were performed in 20 mM Tris-HCl, pH 8.0 at 37° C.
The suspensions were incubated for various times ranging from 0.5 to 60 minutes with the bactericides. The bactericidal efficacy of the bactericides was estimated by determining the percent survival of bacteria.
Incubations were performed in 20 mM Tris-HCl, pH 7.3 at 37° C.

E. coli = experiment: bactericidal activity: percent bacterial survival after treatment, suspension in buffer; assay type: cell-based, Escherichia coli; conditions: for Percentage E. coli Survival at 2 hours: 20 mM Tris pH 8.0, 37° C
Method: (§1) All tests in the following examples were performed at 37° C. The efficacy of the enhanced broad range bactericides was determined by assaying bactericidal activity as measured by the percent bacterial survival after treatment with the bactericide. Generally, after incubation of a 10^7 cell per ml suspension of target species with the novel bactericide for specified lengths of time, bacteria were collected by centrifugation for 2 minutes. The bacterial pellet was washed free of the bactericide with a rescue buffer, termed herein Phage buffer (50 mM Tris-HCl buffer pH 7.8, 1 mM MgSO4, 4 mM CaCl2, 0.1M Nacl, and 0.1% gelatin), resuspended and serially diluted into Phage buffer, and 100 μl of the suspended bacteria were spread on nutrient agar plates. Surviving bacteria were determined by scoring colony forming units (CFU) after incubation for 24-48 hours at 37° C.
The effects of the bactericide were measured as a function of percentage bacteria survival after 2 hours.
Incubations were performed in 20 mM Tris-HCl, […] at 37° C.

Listeria monocytogenes [2] = experiment: bactericidal activity: percent bacterial survival in Tris buffer; assay type: cell-based; conditions: 20 mM Tris-HCl pH 8.0
Method: (§2) All tests in the following examples were performed at 37° C. The efficacy of the enhanced broad range bactericides was determined by assaying bactericidal activity as measured by the percent bacterial survival after treatment with the bactericide. Generally, after incubation of a 10^7 cell per ml suspension of target species with the novel bactericide for specified lengths of time, bacteria were collected by centrifugation for 2 minutes. The bacterial pellet was washed free of the bactericide with a rescue buffer, termed herein Phage buffer (50 mM Tris-HCl buffer pH 7.8, 1 mM MgSO4, 4 mM CaCl2, 0.1M Nacl, and 0.1% gelatin), resuspended and serially diluted into Phage buffer, and 100 μl of the suspended bacteria were spread on nutrient agar plates. Surviving bacteria were determined by scoring colony forming units (CFU) after incubation for 24-48 hours at 37° C. An effective bactericide according to this invention is one which allows less than 0.1% of the initial viable count of the bacteria to survive.
(§3) Incubations were performed in 20 mM Tris-HCl, pH at 8.0 at 37° C.

[3] = test system: S. typhimurium on chicken muscle; experiment: bactericidal activity on inoculated chicken muscle, survival of unadhered cells; assay type: cell-based, Salmonella typhimurium
Method: as §2
Incubations were performed in either 50 mM sodium acetate, pH 5.0, or 20 mM Tris, pH 8.0 at 37° C.
Cubes of chicken muscle were cleansed with sodium hypochlorite and povidone iodine prior to use. To inoculate the tissue, the cubes of chicken muscle were dipped into a 10^8 cells/ml suspension of S. typhimurium in 20 mM Tris HCl, pH 8.0. Excess moisture was removed from dipped cubes by tapping. The chicken samples were placed into sufficient buffer containing the nisin composition to cover the tissue and incubated for 2 hours at 37° C. after which the tissue was removed to sufficient Phage buffer to cover the tissue. The bacteria remaining in the test solution were collected by centrifugation, washed with Phage buffer, and combined with bacteria washed from the tissue by Phage buffer. The combined samples (termed "unadhered" cells) were serially diluted and 100 μl aliquots were plated for determination of surviving bacteria.
(§4) Cubes of chicken muscle were cleansed with sodium hypochlorite and povidone iodine prior to use. To inoculate the tissue, the cubes of chicken muscle were dipped into a 10^8 cells/ml suspension of S. typhimurium in 20 mM Tris HCl, pH 8.0. Excess moisture was removed from dipped cubes by tapping. The tissue was placed into sufficient buffer containing the nisin compositions to cover the tissue, and incubated for 2 hours at 37° C. after which the tissue was removed to sufficient Phage buffer to cover the tissue. The bacteria remaining in the test solution were collected by centrifugation, washed with Phage buffer, and combined with bacteria washed from the tissue by Phage buffer. The combined samples (termed "unadhered" cells) were serially diluted and 100 μl aliquots were plated for determination of surviving bacteria.
as §4, with “cleaned” for “cleansed”, “50” for “20”, “sodium acetate buffer,” for “Tris HCl,”, “5.0.” for “8.0.”, “containing” for “containing the”

S. typhimurium = experiment: bactericidal activity: percent bacterial survival after treatment, suspension in buffer; assay type: cell-based, Salmonella typhimurium
Method: as §1
The control (Test #1) is identical to the control of Example 1 (Table 1).

Coryneform bacteria = experiment: bactericidal activity: percent bacterial survival in Tris buffer; assay type: cell-based, mixed population of axillary Coryneform bacteria; conditions: 20 mM Tris-HCl pH 8.0
Method: as §1, §3

Staphylococcus aureus = experiment: bactericidal activity: percent bacterial survival, influence of pH and EDTA; assay type: cell-based
Method: as §2
Incubations were performed in 50 mM sodium acetate buffer, pH 5.0 or 20 m
TrisHCl buffer, pH 8.0 at 37° C.

K. pneumoniae = experiment: bactericidal activity: percent bacterial survival after treatment, suspension in buffer; assay type: cell-based, Klebsiella pneumoniae; conditions: 20 mM Tris pH 8.0, 37° C
Method: as §1
The effect was measured as a function of percentage bacterial survival after 2 hours.

Streptococcus agalactiae = experiment: bactericidal activity in milk; assay type: cell-based
Method: as §2
However, the combination of the two agents, 0.1% monolaurin and nisin 0.2 μg/ml, is extremely potent towards S. agalactiae. […] Thus, when the application of nisin is limited by its available activity, a bactericide comprising nisin with a surfactant can be expected to be more useful.
(§5) Incubations were in milk at 37° C.

Listeria monocytogenes [4] = experiment: bactericidal activity in milk; assay type: cell-based
Method: as §2
An example of where the application of nisin is limited by its available activity is illustrated by the data in Table 15B.
as §5

Streptococcus mutans [5] = experiment: rapid bactericidal activity in the presence of divalent cation, 10% Fetal Calf Serum; assay type: cell-based; conditions: Nisin 3, no EDTA, CaCl3 0 mM
Method: Incubations were performed in 10% Fetal Calf Serum at 37° C.

In the case of `O=C([O-])CN(CCN(CC(=O)[O-])CC(=O)O)CC(=O)O.[Na+].[Na+]` [EDTA], the “% Survival” value (Streptococcus mutans [1]; incubation 3 minutes) is reported as 100%, the “% Survival” value (Streptococcus mutans [1]; incubation 60 minutes) is reported as 100% and the “% survival at 1 min.” value (E. coli; EDTA 1.0 mM, nisin 0, 20 mM Tris-HCl pH 7.0) is reported as 100%. The “% Survival after 2 hr” value (Listeria monocytogenes [2]; EDTA 1.0 mM, nisin 0) was 84%, the “% Survival at 2 hours” value ([3]; EDTA 1.0 mM, BSA 1.0%, nisin 0, pH 8.0) was 27% and the “% Survival at 2 hours (unadhered cells)” value ([3]; EDTA 10 mM, nisin 0, 20 mM Tris pH 8.0) was 5.2%. For the same compound, the “% Survival at 2 hours (unadhered cells)” value ([3]; EDTA 10 mM, nisin 0, 50 mM sodium acetate pH 5.0 (Table 7)) was 6.4%, the “% Survival at 2 hours” value (S. typhimurium; EDTA 1.0 mM, BSA 1.0%, nisin 0, 20 mM Tris pH 8.0) was 63% and the “% Survival at 2 hours” value (S. typhimurium; EDTA 2.0 mM, nisin 0, 20 mM Tris pH 8.0, 37° C) was 8.7%. For the same compound, the “% Survival at 2 hours” value (S. typhimurium; EDTA 10 mM, nisin 0, 20 mM Tris pH 8.0, 37° C) was 14%, the “Percentage S. typhimurium Survival at 3 hours” value (S. typhimurium; EDTA 20 mM, nisin 0, 20 mM Tris pH 8.0, 37° C) was 2.5% and the “% Survival at 2 hours” value (S. typhimurium; EDTA 50 mM, nisin 0, 50 mM sodium acetate pH 5.0, 37° C) was 3.5%. For the same compound, the “% Survival at 2 hours” value (S. typhimurium; EDTA 100 mM, nisin 0, 20 mM Tris pH 8.0, 37° C) was 45%, the “% Survival 2 hr” value (Coryneform bacteria; EDTA 0.3 mM, nisin 0) was 4.6% and the “% Survival 2 hr” value (Coryneform bacteria; EDTA 1.0 mM (last column, after 3.0), nisin 0) was 36%. For the same compound, the “% Survival 2 hr” value (Coryneform bacteria; EDTA 1.0 mM, nisin 0) was 3.6%, the “% Survival 2 hr” value (Coryneform bacteria; EDTA 3.0 mM, nisin 0) was 8% and the “% Survival 2 hr” value (Staphylococcus aureus; EDTA 0.3 mM, nisin 0, pH 8.0) was 100%. For the same compound, the “% Survival 2 hr” value (Staphylococcus aureus; EDTA 1.0 mM, nisin 0, pH 8.0) was 81%, the “% Survival 2 hr” value (Staphylococcus aureus; EDTA 3.0 mM, nisin 0, pH 5.0) was 100% and the “% Survival 2 hr” value (Staphylococcus aureus; EDTA 3.0 mM, nisin 0, pH 8.0) was 100%. The “% Survival 2 hr” value (Staphylococcus aureus; EDTA 10 mM, nisin 0, pH 8.0) was 100%, the “% Survival 2 hr” value (Staphylococcus aureus; EDTA 30 mM, nisin 0, pH 8.0) was 100% and the “% Survival at 2 hours” value (K. pneumoniae; EDTA 20 mM, nisin 0) was 22%.
In the case of `CCCCCCCCCCCC(=O)OCC(O)CO` (stereo not drawn) [Monolaurin, monolaurin], the “% survival at 2 h” value (Streptococcus agalactiae; Monolaurin 0.01%, nisin 0, 37° C) is reported as 100% and the “% survival at 2 h” value (Streptococcus agalactiae; Monolaurin 0.1%, nisin 0, 37° C) is reported as 4.5%.
Triton X-100 was tested, and the “Percentage E. coli Survival at 2 hours” value (E. coli; Triton X-100 1.0%, nisin 0, EDTA 0) was 100% and the “bactericidal activity towards E. coli” value (E. coli; Triton X-100 1.0%, tests #3 and #4 of Table 4) was “no significant bactericidal activity”.
monooleate was tested, and the “% Survival 2 hr” value (Listeria monocytogenes [4]; Monooleate 0.1%, nisin 0, 37° C) was 67%, the “% Survival 2 hr” value (Listeria monocytogenes [4]; Monooleate 1.0%, nisin 0, 37° C) was 63% and the “bactericidal activity towards L. monocytogenes” value (Listeria monocytogenes [4]; monooleate by itself) was “no bactericidal activity”.
In the case of “nisin (ITSISLCTPGCKTGALMGCNMKTATCHCSIHVSK; cysteine pairing not given here; also: lantibiotic, modifications not placed; UniProt P13068 24-57, looked up) [polypeptide bacteriocin with antimicrobial properties produced by strains of Streptococcus lactis]”, the “% Survival after 2 hr” value (Streptococcus mutans [1]; nisin 0.1 μg/ml, EDTA 0, 20 mM Tris-HCl pH 8.0) is reported as 4.3%, the “% survival at 2 h” value (Streptococcus agalactiae; nisin 0.02 μg/ml, Monolaurin 0, 37° C) is reported as 100% and the “% survival at 2 h” value (Streptococcus agalactiae; nisin 0.2 μg/ml, Monolaurin 0, 37° C) is reported as 2.2%. The “Percentage E. coli Survival at 2 hours” value (E. coli; nisin 30 μg/ml, EDTA 0, Triton X-100 0) was 27%, the “Percentage E. coli Survival at 2 hours” value (E. coli; nisin 100 μg/ml, EDTA 0, Triton X-100 0) was 25% and the “Percentage E. coli Survival at 2 hours” value (E. coli; nisin 300 μg/ml, EDTA 0, Triton X-100 0) was 8.5%. The “% Survival 2 hr” value (Listeria monocytogenes [4]; nisin 100 μg/ml, Monooleate 0, 37° C) was 0.56%, the “% Survival after 2 hr” value (Listeria monocytogenes [2]; nisin 3.0 μ/ml, EDTA 0) was 0.71% and the “% Survival at 2 hours (unadhered cells)” value ([3]; nisin 300 μg/ml, EDTA 0, 1% Bovine serum albumin, 20 mM Tris pH 8.0) was 0.02%. The “% Survival at 2 hours (unadhered cells)” value ([3]; nisin 300 μg/ml, EDTA 0, 20 mM Tris pH 8.0) was 7.5%, the “% Survival at 2 hours (unadhered cells)” value ([3]; nisin 300 μg/ml, EDTA 0, 50 mM sodium acetate pH 5.0) was 0.1% and the “% Survival at 2 hours” value (S. typhimurium; nisin 10 μg/ml, EDTA 0, BSA 0, Tris buffer (Table 8)) was 51.3%. The “Percentage S. typhimurium Survival at 3 hours” value (S. typhimurium; nisin 50 μg/ml, EDTA 0, 20 mM Tris pH 8.0, 37° C) was 7.0%, the “% Survival at 2 hours” value (S. typhimurium; nisin 100 μg/ml, EDTA 0, BSA 0, Tris buffer (Table 8)) was 1.6% and the “Percentage S. typhimurium Survival at 3 hours” value (S. typhimurium; nisin 100 μg/ml, EDTA 0, 20 mM Tris pH 8.0, 37° C) was 1.6%. The “% Survival at 2 hours” value (S. typhimurium; nisin 100 μg/ml, EDTA 0, 20 mM Tris pH 8.0, 37° C (Table 6)) was 4%, the “% Survival at 2 hours” value (S. typhimurium; nisin 100 μg/ml, EDTA 0, 50 mM sodium acetate pH 5.0, 37° C) was 0.6% and the “% Survival 2 hr” value (Coryneform bacteria; nisin 3 μg/ml, EDTA 0) was 0.22%. For the same compound, the “% Survival 2 hr” value (Staphylococcus aureus; nisin 3.0 μg/ml, EDTA 0, pH 5.0) was 0.6%, the “% Survival 2 hr” value (Staphylococcus aureus; nisin 3.0 μg/ml, EDTA 0, pH 8.0) was 7.4% and the “% survival at 1 min.” value (Streptococcus mutans [5]) was 2.9%. The “% Survival at 2 hours” value (K. pneumoniae; nisin 100 μg/ml, EDTA 0) was 50% and the “% Survival at 2 hours” value (K. pneumoniae; nisin 300 μg/ml, EDTA 0) was 38%.
